Reference: patent US7265130B2, “NPY Y5 antagonist” (Shionogi & Co., Ltd., priority 1999, dated 2007)

Legend:
human NPY Y5 receptor [1] = target: T1, human NPY Y5 receptor (Homo sapiens, UniProt Q15761); assay: Affinity for NPY Y5 receptor ([125I] peptide YY binding, CHO cell membranes); conditions: inhibition of specific [125I] peptide YY binding, membranes of CHO cells expressing NPY Y5 receptor
T1 construct: expressed in transfected cells
T1 sequence (Q15761 1-445): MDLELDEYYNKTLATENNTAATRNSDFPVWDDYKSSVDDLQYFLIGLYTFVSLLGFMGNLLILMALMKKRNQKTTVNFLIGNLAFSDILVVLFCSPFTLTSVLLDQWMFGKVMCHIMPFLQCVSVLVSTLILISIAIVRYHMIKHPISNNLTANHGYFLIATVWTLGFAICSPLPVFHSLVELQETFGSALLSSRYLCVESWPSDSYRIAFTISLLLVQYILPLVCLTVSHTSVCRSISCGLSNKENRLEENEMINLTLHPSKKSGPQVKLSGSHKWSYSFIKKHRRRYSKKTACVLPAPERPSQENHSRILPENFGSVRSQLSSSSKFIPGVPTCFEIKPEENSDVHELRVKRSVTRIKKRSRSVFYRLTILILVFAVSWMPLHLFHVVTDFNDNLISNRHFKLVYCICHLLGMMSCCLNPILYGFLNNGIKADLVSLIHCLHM
Procedure, shortened: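 Membranes from CHO cells stably expressing human NPY Y5 receptor incubated with test compound and [125I] peptide YY (60 pM final) in HEPES-Hanks buffer with 0.1% BSA, pH 7.4, 25° C for 2 hours. Filter-bound radioactivity counted; non-specific binding with 200 nM peptide YY; IC50 against specific binding calculated.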

human NPY Y5 receptor [2] = target: T1, human NPY Y5 receptor; assay: cAMP production inhibitory activity in CHO cells; format: cell-based; conditions: against 50 nM NPY inhibition of forskolin stimulated cAMP, CHO cells expressing human NPY Y5 receptor
Procedure, shortened: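 CHO cells expressing human NPY Y5 receptor preincubated 20 min at 37 °C with 2.5 mM IBMX, then with compound for 5 min. Stimulated with 50 nM NPY plus 10 μM forskolin for 30 min. Reaction stopped with 1N HCl; supernatant cAMP measured by EIA.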

| Structure (SMILES) | IC50 (human NPY Y5 receptor [1]) [nM] | IC50 (human NPY Y5 receptor [2]) [nM] |
| --- | --- | --- |
| CCCCc1ccc(NC(=S)CCCCNS(=O)(=O)CC(C)C)cc1 [Compound I-114] | 7 | 30 |
| CC(C)(C)S(=O)(=O)NC1CCC(C(=O)Nc2ccc(N3CCc4ccccc43)cc2)CC1 (stereo not shown) [Compound I-75] | 0.55 | 3.4 |
| CC(C)c1ccc(NC(=O)C2CCC(NS(=O)(=O)C(C)(C)C)CC2)cc1 (stereo not shown) [Ia-11] | 0.64 | 7.2 |
| CC(C)(C)S(=O)(=O)NC1CCC(C(=O)Nc2cccc(Cl)c2)CC1 (stereo not shown) [Ia-41] | 2.5 | 9 |
| CC(C)(C)S(=O)(=O)NC1CCC(C(=O)Nc2ccc(-c3cccs3)cc2)CC1 (stereo not shown) [Ia-202] | 0.37 | 3.4 |
| CC(C)S(=O)(=O)NC1CCC(C(=O)Nc2ccc3c(c2)CCC3)CC1 (stereo not shown) [Ia-141] | 1 | 5.7 |
| CC(C)(C)S(=O)(=O)NC1CCC(C(=O)Nc2ccc(F)c(F)c2)CC1 (stereo not shown) [Ia-138] | 2.2 | 28 |
| CC(C)(C)S(=O)(=O)NC1CCC(C(=O)Nc2ccc(-n3cccn3)cc2)CC1 (stereo not shown) [Compound I-77] | 1.8 | 28 |
| CC(C)(C)S(=O)(=O)NC1CCN(C(=O)Nc2ccc(OC3CCOCC3)cc2)CC1 [Ia-225] | 3.4 | 20 |
| CCC(C)COC(=O)/C=C/c1ccc(NC(=O)C2CCC(NS(=O)(=O)C(C)(C)C)CC2)cc1 (stereo not shown) [Compound I-133] | 0.9 | 21.1 |
| CC(C)(C)S(=O)(=O)NC1CCC(C(=O)Nc2ccc3sccc3c2)CC1 (stereo not shown) [Compound I-210] | 1.1 | 13 |
| Cn1cc(Br)c(-c2cccc(NC(=O)C3CCC(NS(=O)(=O)C(C)(C)C)CC3)c2)n1 (stereo not shown) [Compound I-131] | 1.1 | 34.8 |
| CCc1ccc(NC(=O)C2CCC(NS(=O)(=O)C(C)(C)C)CC2)cc1 (stereo not shown) [Ia-9] | 0.94 | 11 |
| CC(C)(C)S(=O)(=O)NC1CCC(C(=O)Nc2ccc3ncccc3c2)CC1 (stereo not shown) [Compound I-140] | 0.48 | 8.9 |
| CC(C)NS(=O)(=O)c1cccc(NC(=O)C2CCC(NS(=O)(=O)C(C)(C)C)CC2)c1 (stereo not shown) [Ia-181] | 7.7 | 25 |
| CC(C)(C)S(=O)(=O)NC1CCC(C(=O)Nc2ccc(C(=O)c3ccccc3)cc2)CC1 (stereo not shown) [Ia-53] | 0.22 | 8.1 |
| CC(C)(C)S(=O)(=O)NC1CCC(C(=O)Nc2cccc(N3CCOCC3)c2)CC1 (stereo not shown) [Compound I-199] | 4.8 | 31 |
| CCCCc1ccc(NC(=O)C23CCC(NS(=O)(=O)C(C)(C)C)(CC2)CC3)cc1 [Compound I-123] | 1.8 | 168 |
| CCCCOc1ccc(NC(=O)C2CCC(NS(=O)(=O)C(C)(C)C)CC2)c(O)c1 (stereo not shown) [Compound I-165] | 0.44 | 47 |
| CC(C)(C)S(=O)(=O)NC1CCC(C(=O)Nc2cnc3ccccc3c2)CC1 (stereo not shown) [Compound I-139] | 0.41 | 7.6 |
| C[C@@H]1CN(c2ccc(NC(=O)CCCCNS(=O)(=O)C(C)(C)C)c(F)c2)C[C@H](C)O1 [Ia-83] | 1.2 | 53 |
| CCCCc1ccc(NC(=O)CCCCNS(=O)(=O)C(C)(C)CC)cc1 [Compound I-109] | 1.2 | 3.2 |
| CC(C)(C)S(=O)(=O)NC1CCN(C(=O)Nc2ccc3oc(=O)ccc3c2)CC1 [Ia-68] | 9.5 | 180 |
| CCCCOc1cccc(NC(=O)C2CCC(NS(=O)(=O)C(C)(C)C)CC2)c1 (stereo not shown) [Compound I-161] | 0.49 | 3.1 |
| CC(C)(C)S(=O)(=O)NC1CCC(C(=O)Nc2cnc(-c3ccccc3)cn2)CC1 (stereo not shown) [Ia-59] | 0.71 | 16 |
| CC(C)(C)S(=O)(=O)NC1CCC(C(=O)Nc2ccc(N3CCC(O)(c4ccc(Cl)cc4)CC3)cc2)CC1 (stereo not shown) [Ia-65] | 1.1 | 11 |
